Values belong to the molecule of their own block, whether it stands above or below them. Active and inactive are the calls of the source.
What was measured:
[1] = Late stage counterscreen results from the probe development effort to identify activators of signal transducer and activator of transcription 1 (STAT1): luminescence-based cell-based dose response assay to identify cytotoxic compounds.; type: functional
[2] = target: Voltage-gated inwardly rectifying potassium channel KCNH2 (Homo sapiens, UniProt Q12809); assay: hERG protection from proarrhythmic block, potency, dose response, cell-based, thallium flux (AID 2121); type: ADME
Sequence of Voltage-gated inwardly rectifying potassium channel KCNH2 (Q12809 whole entry): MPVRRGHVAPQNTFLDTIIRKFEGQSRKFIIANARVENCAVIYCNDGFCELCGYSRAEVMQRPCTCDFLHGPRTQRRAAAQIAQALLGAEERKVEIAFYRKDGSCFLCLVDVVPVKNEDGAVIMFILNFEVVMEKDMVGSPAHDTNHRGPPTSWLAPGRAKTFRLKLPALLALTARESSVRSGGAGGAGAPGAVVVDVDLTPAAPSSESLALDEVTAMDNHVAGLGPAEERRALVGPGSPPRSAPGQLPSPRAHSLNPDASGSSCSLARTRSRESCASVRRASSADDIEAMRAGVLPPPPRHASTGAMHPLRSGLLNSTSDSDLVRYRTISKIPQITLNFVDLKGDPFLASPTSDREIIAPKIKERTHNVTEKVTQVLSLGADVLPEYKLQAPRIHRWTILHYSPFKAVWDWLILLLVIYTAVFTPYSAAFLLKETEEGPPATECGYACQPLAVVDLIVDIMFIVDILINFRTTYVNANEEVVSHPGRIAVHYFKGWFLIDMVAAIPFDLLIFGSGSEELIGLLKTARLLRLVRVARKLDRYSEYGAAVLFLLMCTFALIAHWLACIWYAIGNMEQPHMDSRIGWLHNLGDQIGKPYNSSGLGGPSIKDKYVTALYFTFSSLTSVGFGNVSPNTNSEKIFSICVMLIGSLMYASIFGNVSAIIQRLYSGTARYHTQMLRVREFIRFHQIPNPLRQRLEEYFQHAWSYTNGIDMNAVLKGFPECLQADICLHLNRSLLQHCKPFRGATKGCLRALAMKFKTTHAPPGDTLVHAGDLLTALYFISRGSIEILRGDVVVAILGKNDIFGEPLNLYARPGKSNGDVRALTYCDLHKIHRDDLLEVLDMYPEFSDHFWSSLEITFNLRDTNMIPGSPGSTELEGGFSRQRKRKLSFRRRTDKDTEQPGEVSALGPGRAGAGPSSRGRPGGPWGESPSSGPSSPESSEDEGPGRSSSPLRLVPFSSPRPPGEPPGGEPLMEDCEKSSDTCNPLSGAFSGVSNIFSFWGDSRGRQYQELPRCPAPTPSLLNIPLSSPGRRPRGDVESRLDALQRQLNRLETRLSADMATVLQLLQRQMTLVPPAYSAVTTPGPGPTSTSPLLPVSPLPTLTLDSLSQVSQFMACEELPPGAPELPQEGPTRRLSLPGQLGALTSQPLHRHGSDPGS

[3] = Luminescent dose response cell-based high throughput screening assay for inhibitors of the Janus kinase 2 mutant JAK2V617F. [Related pubchem assays: 1446 (Primary screen.), 1521 (Confirmation assay.), 1486 (Counter screen.)]; type: functional
[4] = C. albicans growth with fluconazole, confirmation, fluorescence, retest (AID 2467); type: functional, cell-based
[5] = target: T1, Mannose-6-phosphate isomerase (Homo sapiens, UniProt P34949); assay: human PMI inhibitors, high substrate, primary screen, biochemical, fluorescence intensity, high mannose 6-phosphate (AID 1220)
T1 sequence (P34949 whole entry): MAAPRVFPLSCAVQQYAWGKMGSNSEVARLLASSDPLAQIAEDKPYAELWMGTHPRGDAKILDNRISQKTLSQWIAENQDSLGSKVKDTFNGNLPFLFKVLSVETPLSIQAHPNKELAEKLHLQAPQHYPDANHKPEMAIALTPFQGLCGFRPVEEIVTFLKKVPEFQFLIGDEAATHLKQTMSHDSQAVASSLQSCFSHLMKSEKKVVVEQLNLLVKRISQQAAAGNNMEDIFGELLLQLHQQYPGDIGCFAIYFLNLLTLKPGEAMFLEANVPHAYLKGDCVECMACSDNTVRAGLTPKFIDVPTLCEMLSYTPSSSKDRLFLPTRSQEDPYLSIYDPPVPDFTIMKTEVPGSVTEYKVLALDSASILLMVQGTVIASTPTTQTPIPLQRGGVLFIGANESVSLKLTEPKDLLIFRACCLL

[6] = NIH-3T3 fibroblast cytotoxicity, dose response, cytotoxicity control, cell-based, fluorescence, Alamar Blue, secondary assay (AID 2327); type: functional;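 further: NIH-3T3 mouse fibroblasts cultured with fluconazole at 8 µg/mL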
[7] = target: Induced myeloid leukemia cell differentiation protein Mcl-1 (Homo sapiens, UniProt Q07820); type: functional
[8] = target: T2, Histone-lysine N-methyltransferase NSD2 (Homo sapiens, UniProt O96028); type: biochemical
T2 sequence (O96028 whole entry): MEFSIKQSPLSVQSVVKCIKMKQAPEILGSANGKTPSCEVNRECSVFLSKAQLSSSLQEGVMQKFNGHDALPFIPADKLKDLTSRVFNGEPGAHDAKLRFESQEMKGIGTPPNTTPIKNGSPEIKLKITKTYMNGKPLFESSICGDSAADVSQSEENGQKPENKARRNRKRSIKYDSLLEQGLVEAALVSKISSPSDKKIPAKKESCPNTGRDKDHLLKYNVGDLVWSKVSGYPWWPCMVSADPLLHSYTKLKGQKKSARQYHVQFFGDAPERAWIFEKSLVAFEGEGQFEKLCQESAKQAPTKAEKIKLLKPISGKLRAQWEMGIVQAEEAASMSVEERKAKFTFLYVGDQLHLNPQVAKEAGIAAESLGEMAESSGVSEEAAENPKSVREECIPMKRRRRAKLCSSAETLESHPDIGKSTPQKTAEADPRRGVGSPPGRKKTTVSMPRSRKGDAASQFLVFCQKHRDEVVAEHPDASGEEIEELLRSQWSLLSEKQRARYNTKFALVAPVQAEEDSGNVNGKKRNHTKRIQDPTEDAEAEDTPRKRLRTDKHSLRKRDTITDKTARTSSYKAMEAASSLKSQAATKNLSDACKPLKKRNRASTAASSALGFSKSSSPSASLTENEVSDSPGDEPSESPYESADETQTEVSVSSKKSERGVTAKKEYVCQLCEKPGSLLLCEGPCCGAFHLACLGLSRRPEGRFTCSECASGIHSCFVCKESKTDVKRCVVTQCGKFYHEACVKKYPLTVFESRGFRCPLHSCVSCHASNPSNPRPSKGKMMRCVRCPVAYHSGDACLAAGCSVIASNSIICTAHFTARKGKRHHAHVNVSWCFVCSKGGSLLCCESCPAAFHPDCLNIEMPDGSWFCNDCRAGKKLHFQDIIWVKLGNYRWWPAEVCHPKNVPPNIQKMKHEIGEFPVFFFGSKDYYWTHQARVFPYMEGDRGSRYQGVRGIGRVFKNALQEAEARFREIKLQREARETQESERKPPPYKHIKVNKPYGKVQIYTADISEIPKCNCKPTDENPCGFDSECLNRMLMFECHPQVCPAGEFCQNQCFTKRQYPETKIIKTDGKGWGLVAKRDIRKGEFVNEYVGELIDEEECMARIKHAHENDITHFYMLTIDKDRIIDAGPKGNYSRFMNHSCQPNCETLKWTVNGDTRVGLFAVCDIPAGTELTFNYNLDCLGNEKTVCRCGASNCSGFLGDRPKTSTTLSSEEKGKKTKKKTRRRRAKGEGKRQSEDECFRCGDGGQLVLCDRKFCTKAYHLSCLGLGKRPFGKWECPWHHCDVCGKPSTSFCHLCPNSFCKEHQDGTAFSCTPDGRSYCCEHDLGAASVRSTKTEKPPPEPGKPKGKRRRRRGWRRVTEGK

[9] = target: Peroxisome proliferator-activated receptor gamma/Nuclear receptor coactivator 3 (Homo sapiens, UniProt P37231); assay: (§1) TR-FRET dose response biochemical High Throughput Screening assay for agonists of the steroid receptor coactivator 3 (SRC-3) recruitment by the peroxisome proliferator-activated receptor gamma (PPAR gamma): non-selective agonists. [Related pubchem assays: 1301 (Confirmation screen.), 1048 (Primary screen.)]; type: functional
Sequence of Peroxisome proliferator-activated receptor gamma/Nuclear receptor coactivator 3 (P37231 whole entry): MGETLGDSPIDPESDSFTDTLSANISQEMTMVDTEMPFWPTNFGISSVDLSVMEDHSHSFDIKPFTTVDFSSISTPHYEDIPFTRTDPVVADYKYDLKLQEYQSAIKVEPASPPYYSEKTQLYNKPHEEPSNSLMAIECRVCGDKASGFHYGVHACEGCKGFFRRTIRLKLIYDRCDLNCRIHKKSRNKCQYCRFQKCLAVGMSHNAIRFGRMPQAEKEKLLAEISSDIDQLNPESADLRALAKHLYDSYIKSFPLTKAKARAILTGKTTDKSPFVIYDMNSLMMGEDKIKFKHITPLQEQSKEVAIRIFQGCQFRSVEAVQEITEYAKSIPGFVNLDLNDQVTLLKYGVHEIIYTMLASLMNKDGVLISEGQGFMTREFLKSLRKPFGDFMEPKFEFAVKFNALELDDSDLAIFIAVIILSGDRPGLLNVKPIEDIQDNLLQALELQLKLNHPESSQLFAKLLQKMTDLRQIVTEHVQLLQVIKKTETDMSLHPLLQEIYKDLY
Sequence of Peroxisome proliferator-activated receptor gamma/Nuclear receptor coactivator 3 (Q9Y6Q9 whole entry, further chain): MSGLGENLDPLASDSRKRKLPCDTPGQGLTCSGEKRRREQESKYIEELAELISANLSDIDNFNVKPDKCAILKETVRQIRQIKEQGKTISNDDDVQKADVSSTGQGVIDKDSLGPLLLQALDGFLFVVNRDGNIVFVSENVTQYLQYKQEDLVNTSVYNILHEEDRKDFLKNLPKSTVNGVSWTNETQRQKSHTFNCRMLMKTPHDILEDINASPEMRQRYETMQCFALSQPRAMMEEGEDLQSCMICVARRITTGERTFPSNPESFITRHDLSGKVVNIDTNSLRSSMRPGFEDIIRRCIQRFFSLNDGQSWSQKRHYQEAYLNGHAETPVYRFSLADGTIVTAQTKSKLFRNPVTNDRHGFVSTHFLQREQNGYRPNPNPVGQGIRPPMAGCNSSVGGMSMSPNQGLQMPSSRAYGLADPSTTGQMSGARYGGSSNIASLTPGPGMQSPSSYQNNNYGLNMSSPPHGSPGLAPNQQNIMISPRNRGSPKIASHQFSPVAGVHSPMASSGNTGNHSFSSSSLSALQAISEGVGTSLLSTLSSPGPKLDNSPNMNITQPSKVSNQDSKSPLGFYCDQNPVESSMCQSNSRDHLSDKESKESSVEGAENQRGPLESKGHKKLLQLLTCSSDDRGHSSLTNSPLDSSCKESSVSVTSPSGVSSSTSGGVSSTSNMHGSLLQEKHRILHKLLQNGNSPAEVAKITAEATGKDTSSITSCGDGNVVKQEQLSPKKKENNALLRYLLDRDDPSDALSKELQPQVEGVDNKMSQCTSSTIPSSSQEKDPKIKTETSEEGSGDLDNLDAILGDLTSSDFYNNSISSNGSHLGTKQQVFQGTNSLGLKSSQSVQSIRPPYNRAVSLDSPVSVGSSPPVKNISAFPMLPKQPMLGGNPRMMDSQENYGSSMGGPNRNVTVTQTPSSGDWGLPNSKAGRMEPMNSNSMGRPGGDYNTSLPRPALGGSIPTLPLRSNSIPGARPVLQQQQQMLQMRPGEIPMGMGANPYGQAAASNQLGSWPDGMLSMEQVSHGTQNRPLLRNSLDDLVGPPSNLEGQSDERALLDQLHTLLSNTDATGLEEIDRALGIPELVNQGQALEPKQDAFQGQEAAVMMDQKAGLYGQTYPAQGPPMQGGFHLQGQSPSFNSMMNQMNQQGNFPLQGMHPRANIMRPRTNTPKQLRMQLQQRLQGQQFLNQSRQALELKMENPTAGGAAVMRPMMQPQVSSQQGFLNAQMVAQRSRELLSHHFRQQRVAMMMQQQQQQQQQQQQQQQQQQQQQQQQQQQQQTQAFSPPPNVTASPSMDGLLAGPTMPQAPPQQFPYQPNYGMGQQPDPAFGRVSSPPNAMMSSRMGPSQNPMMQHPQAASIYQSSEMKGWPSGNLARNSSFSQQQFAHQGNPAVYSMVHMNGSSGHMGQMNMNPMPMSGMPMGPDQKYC

[10] = target: T3, Corticotropin-releasing factor receptor 2/Corticotropin-releasing factor-binding protein (Homo sapiens, UniProt P24387+Q13324); assay: activators of CRF receptor 2 with binding protein – uHTS hits, confirmation (AID 602473); type: functional; conditions: read-out: EC50_Mean
T3 sequence (Q13324 whole entry): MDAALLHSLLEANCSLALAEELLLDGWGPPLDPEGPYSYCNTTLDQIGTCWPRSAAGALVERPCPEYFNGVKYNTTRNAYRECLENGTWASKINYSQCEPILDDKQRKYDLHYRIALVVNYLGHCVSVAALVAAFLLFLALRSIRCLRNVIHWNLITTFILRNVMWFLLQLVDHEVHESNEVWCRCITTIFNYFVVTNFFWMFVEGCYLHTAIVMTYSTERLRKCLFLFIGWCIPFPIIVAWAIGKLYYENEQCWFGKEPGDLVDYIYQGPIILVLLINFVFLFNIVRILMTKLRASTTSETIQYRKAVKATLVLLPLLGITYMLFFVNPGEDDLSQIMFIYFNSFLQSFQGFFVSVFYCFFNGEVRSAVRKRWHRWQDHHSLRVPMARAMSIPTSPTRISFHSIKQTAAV
T3 sequence (P24387 whole entry): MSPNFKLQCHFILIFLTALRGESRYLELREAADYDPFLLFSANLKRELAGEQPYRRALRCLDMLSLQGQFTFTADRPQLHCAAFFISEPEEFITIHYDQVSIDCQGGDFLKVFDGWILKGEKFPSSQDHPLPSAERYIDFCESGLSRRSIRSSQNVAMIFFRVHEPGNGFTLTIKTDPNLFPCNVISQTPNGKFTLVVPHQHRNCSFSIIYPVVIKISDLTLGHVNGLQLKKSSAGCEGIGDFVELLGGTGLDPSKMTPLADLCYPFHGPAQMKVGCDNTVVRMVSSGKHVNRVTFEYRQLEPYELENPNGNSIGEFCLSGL

[11] = target: Peroxisome proliferator-activated receptor gamma/Nuclear receptor coactivator 1 (Homo sapiens, UniProt P37231); assay: as §1, with “1 (SRC-1)” for “3 (SRC-3)”, “assays (depositor defined):AID1300, AID1808, AID504735, AID631]” for “assays: 1301 (Confirmation screen.), 1048 (Primary screen.)]”; type: protein assay
[12] = target: T3, Corticotropin-releasing factor receptor 2/Corticotropin-releasing factor-binding protein; assay: Dose Response confirmation of uHTS hits for small molecule antagonists of the CRF-binding protein and CRF-R2 receptor complex.; type: functional; conditions: read-out: IC50_Mean
Aminopeptidase N = target: T4, Aminopeptidase N (Plasmodium falciparum FcB1/Columbia, UniProt O96935); assay: P. falciparum M1AAP inhibitors, biochemical, fluorogenic H-Leu-NHMec substrate, 1536-well (AID 1445); set-up: species or system Plasmodium falciparum 3D7, 3D7
T4 sequence (O96935 whole entry): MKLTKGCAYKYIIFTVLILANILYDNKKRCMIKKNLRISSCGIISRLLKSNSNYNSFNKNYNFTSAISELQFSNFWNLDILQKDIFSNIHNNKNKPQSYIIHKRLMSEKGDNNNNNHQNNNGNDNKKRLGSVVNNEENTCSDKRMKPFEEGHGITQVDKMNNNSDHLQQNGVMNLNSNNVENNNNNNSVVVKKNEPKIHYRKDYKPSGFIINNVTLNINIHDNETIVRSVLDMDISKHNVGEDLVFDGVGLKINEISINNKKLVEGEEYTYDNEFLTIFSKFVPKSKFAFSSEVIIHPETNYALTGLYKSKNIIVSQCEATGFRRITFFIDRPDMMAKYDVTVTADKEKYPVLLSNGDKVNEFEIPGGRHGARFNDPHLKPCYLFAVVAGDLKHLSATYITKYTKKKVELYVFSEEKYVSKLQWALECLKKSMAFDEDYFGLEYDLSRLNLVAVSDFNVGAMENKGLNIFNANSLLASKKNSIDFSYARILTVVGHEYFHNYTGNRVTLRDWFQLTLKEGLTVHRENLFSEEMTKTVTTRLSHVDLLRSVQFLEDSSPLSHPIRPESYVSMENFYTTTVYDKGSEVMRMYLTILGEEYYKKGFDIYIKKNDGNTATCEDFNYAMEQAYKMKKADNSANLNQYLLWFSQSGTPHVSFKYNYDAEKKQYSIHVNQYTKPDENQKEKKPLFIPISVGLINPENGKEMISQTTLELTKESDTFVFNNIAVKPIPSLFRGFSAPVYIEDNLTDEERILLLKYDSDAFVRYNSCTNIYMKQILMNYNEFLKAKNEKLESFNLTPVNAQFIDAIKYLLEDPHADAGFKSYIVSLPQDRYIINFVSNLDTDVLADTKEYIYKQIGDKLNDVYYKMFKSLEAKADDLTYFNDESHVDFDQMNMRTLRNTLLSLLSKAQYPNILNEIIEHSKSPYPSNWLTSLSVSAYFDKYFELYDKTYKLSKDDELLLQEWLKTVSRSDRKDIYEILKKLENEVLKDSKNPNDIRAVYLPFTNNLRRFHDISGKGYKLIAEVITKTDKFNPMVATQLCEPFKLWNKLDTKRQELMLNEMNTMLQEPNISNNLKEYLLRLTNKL

Aspartyl aminopeptidase = Aspartyl aminopeptidase (Plasmodium falciparum 3D7, UniProt Q8I2J3); assay: Counterscreen for inhibitors of M1 and M17 aminopeptidases: QFRET-based biochemical high throughput dose response assay for inhibitors of the Plasmodium falciparum M18 Aspartyl Aminopeptidase (PFM18AAP). [Related PubChem assays: 1619 (Screening assay (M17LAP inhibitors).), 1445 (Screening assay (M1AAP inhibitors).)]
Procathepsin L = Procathepsin L (Homo sapiens, UniProt P07711); assay: cathepsin L inhibitors, dose response, counter-screen for M1/M17 aminopeptidase inhibitor project, biochemical, QFRET, 1536-well (AID 2214)
[13] = target: Peroxisome proliferator-activated receptor gamma/Nuclear receptor coactivator 2 (Homo sapiens, UniProt P37231); assay: TR-FRET dose response biochemical High Throughput Screening assay for agonists of the steroid receptor coactivator 2 (SRC-2) recruitment by the peroxisome proliferator-activated receptor gamma (PPAR gamma): non-selective agonists. [Related pubchem assays: 1297, 1032 ]; type: functional
Sequence of Peroxisome proliferator-activated receptor gamma/Nuclear receptor coactivator 2 (P37231 whole entry): as the sequence (P37231 whole entry) above
Sequence of Peroxisome proliferator-activated receptor gamma/Nuclear receptor coactivator 2 (Q15596 whole entry, further chain): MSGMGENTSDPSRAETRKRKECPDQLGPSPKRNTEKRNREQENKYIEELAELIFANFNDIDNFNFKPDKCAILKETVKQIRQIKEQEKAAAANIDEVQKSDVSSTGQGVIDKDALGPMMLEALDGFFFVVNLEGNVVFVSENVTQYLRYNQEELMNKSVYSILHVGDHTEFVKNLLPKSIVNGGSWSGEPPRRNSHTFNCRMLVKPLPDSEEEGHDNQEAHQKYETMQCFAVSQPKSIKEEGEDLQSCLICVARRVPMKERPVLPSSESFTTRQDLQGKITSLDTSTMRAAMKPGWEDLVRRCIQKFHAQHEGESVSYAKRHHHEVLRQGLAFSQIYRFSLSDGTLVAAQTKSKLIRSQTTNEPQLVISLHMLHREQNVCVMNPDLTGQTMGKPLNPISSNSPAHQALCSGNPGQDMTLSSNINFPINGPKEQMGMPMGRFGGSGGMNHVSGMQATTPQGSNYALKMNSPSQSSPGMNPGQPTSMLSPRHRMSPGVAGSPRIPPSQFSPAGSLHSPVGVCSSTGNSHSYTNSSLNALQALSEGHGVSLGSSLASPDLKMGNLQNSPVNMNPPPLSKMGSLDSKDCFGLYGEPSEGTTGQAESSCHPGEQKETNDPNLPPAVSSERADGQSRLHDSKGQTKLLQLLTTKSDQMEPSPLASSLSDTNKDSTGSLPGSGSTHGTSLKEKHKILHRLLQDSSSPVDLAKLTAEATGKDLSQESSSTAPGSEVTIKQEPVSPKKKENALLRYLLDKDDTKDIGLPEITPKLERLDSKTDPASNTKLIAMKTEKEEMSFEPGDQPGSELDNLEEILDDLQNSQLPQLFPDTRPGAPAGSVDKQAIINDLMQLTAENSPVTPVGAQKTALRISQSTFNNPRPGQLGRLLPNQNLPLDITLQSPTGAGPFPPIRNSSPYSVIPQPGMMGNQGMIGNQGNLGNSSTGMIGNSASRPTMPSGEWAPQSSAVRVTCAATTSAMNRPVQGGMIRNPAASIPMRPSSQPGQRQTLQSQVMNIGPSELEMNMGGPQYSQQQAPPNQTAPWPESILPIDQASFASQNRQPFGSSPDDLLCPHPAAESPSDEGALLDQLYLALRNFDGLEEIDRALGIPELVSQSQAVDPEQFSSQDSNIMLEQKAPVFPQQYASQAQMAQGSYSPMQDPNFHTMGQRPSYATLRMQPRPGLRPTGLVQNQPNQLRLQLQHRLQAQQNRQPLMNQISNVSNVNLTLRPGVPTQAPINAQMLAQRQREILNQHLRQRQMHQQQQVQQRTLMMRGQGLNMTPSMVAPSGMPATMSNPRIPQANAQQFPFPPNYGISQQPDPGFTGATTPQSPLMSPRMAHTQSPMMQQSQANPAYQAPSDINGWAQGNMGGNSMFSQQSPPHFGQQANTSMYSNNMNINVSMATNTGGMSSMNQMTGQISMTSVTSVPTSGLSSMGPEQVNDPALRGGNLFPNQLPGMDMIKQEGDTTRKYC

Structure (SMILES): COc1ccc(-c2csc(N3C(=O)CNC3=S)n2)cc1
IC50 [1]: > 55.7 µM (not active)

Structure (SMILES): Cc1onc(-c2ccccc2)c1C(=O)NC(=S)Nc1sc2c(c1C#N)CCC(C)C2 (stereo unspecified)
EC50 [2]: 0.86 µM (active)

Structure (SMILES): Cc1c(Cc2ccccc2)c(=O)oc2c(O)c(O)ccc12
IC50 [3]: 2.67 µM (active)
EC50 [4]: 2.73 µM (active)
IC50 [5]: 29.6 µM (active)
EC50 [6]: 18.7 µM (active)
IC50 [7]: 11.7 µM (not active)
AC50 [8]: > 20 µM (inactive)

EC50 [9]: > 79.4 µM (not active)
EC50 [10]: > 53 µM (inactive)
EC50 [11]: > 79.4 µM (inactive)
IC50 [12]: < 0.368 µM (active)
IC50 (Aminopeptidase N): 4.08 µM (active)
IC50 (Aspartyl aminopeptidase): 39.5 µM (not active)
IC50 (Procathepsin L): 31.8 µM (not active)
EC50 [13]: 41 µM (not active)
Structure (SMILES): O=C1Nc2ccccc2/C1=C1/SC(=S)N(NC(=O)c2cccc(O)c2)C1=O
